Results published in ChEMBL document CHEMBL2074417, “The bisbenzylisoquinoline alkaloids, tetrandine and fangchinoline, enhance the cytotoxicity of multidrug resistance-related drugs via modulation of P-glycoprotein” (Anticancer Drugs, 1998).

How the values were obtained:
[1] = molecular target: T1, ATP-dependent translocase ABCB1 (Homo sapiens, UniProt P08183); assay: TP_TRANSPORTER: increase in Rhodamine 123 intracellular accumulation (R123: 4 uM, Tetrandine: 3 uM) in HCT15 cells; format: functional, cell-based; conditions: hct-15, 3 µM
[2] = molecular target: T1, ATP-dependent translocase ABCB1; assay: TP_TRANSPORTER: increase in Rhodamine 123 intracellular accumulation (R123: 4 uM, Fangchinoline: 3 uM) in HCT15 cells; format: functional, cell-based; conditions: hct-15, 3 µM

T1 sequence (P08183 whole entry): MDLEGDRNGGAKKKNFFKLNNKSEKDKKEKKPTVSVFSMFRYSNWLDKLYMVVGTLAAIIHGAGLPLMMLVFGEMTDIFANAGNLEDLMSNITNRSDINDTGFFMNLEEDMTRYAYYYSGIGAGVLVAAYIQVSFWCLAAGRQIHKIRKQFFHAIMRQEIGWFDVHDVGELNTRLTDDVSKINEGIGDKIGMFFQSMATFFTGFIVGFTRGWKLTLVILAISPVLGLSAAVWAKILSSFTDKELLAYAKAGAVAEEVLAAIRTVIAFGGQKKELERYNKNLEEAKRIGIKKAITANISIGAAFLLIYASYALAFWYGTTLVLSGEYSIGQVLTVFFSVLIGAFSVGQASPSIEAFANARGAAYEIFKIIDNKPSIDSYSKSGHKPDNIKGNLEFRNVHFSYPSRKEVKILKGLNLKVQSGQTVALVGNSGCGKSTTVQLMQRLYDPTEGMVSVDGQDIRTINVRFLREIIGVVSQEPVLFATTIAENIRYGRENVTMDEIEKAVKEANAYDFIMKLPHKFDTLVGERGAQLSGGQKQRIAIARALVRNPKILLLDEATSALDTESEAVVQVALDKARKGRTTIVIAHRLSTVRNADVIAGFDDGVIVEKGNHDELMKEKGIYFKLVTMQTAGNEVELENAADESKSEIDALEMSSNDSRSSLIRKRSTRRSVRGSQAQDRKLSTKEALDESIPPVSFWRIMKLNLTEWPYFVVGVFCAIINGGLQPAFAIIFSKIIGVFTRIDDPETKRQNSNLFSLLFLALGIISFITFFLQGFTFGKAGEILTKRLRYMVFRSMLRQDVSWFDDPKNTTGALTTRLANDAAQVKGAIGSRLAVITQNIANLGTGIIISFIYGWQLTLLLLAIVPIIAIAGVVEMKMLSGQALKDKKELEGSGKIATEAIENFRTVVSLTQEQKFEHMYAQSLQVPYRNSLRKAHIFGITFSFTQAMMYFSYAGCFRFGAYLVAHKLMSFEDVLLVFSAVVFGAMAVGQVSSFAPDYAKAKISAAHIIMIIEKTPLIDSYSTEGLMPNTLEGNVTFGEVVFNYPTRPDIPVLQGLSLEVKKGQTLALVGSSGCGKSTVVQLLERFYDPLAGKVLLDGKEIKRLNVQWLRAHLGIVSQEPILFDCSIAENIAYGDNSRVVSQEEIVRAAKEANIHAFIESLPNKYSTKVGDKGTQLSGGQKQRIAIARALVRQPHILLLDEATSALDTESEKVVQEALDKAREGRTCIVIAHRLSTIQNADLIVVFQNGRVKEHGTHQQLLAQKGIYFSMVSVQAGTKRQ

SMILES | Activity [1] | Activity [2]
COc1ccc2cc1Oc1ccc(cc1)C[C@H]1c3cc(c(OC)cc3CCN1C)Oc1c(OC)c(OC)cc3c1[C@H](C2)N(C)CC3 [FANCHININ] | 2.5 fold | –
COc1ccc2cc1Oc1ccc(cc1)C[C@H]1c3cc(c(OC)cc3CCN1C)Oc1c(O)c(OC)cc3c1[C@H](C2)N(C)CC3 [FANGCHINOLINE] | – | 2.4 fold
